Measured values as given in PubChem BioAssay AID296 (DTP/NCI, 2004).
Values joined by “and” are separate entries in the source; they are usually repeats but may differ in a detail not shown here. Identical values can stand only once. Inconclusive results are not listed.

System: MX-1 breast xenograft, nude mice, tumor weight T/C
Experiment: NCI In Vivo Anticancer Drug Screen. Data for tumor model Human Mammary Carcinoma MX-1 Xenograft (intrarenal inoculation) in NU/NU Swiss (nude) mice
Conditions: endpoint: mean tumor weight change, higher = larger tumour
How it was run: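 Compound dosed to mice with transplantable tumor; vehicle group as control. Endpoint survival or tumour size, reported as T/C.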

[1] = dose: 300.0 mg/kg/injection, schedule: Q04DX003 (sc), vehicle: saline with Tween-80
[2] = dose: 1200.0 mg/kg/injection, schedule: Q04DX003 (sc), vehicle: saline
[3] = dose: 2400.0 mg/kg/injection, schedule: Q04DX003 (sc), vehicle: saline
[4] = dose: 400.0 mg/kg/injection, schedule: Q01DX010 (sc), vehicle: saline with Tween-80
[5] = dose: 800.0 mg/kg/injection, schedule: Q01DX010 (sc), vehicle: saline with Tween-80
[6] = dose: 200.0 mg/kg/injection, schedule: Q01DX010 (sc), vehicle: saline with Tween-80
[7] = dose: 100.0 mg/kg/injection, schedule: Q01DX010 (sc), vehicle: saline with Tween-80
[8] = dose: 150.0 mg/kg/injection, schedule: Q04DX003 (sc), vehicle: Klucel (hydroxypropylcellulose) (HPC)
[9] = dose: 300.0 mg/kg/injection, schedule: Q04DX003 (sc), vehicle: Klucel (hydroxypropylcellulose) (HPC)
[10] = dose: 600.0 mg/kg/injection, schedule: Q04DX003 (sc), vehicle: Klucel (hydroxypropylcellulose) (HPC)
[11] = dose: 100.0 mg/kg/injection, schedule: Q01DX010 (sc), vehicle: saline
[12] = dose: 200.0 mg/kg/injection, schedule: Q01DX010 (sc), vehicle: saline
[13] = dose: 400.0 mg/kg/injection, schedule: Q01DX010 (sc), vehicle: saline

For `OCC1OC(n2cnc3cc(Cl)c(Cl)cc32)C(O)C1O` (centres undefined), the T/C [1] was 156 % of control, the T/C (dose: 600.0 mg/kg/injection, schedule: Q04DX003 (sc), vehicle: saline with Tween-80) was 114 % of control and 118 % of control and the T/C (dose: 1200.0 mg/kg/injection, schedule: Q04DX003 (sc), vehicle: saline with Tween-80) was 114 % of control. For the same compound, the T/C (dose: 2400.0 mg/kg/injection, schedule: Q04DX003 (sc), vehicle: saline with Tween-80) was 66 % of control.

For `C[n+]1c(/C=C\C=C\N2CCCCC2)sc2ccccc21`, the T/C (dose: 0.75 mg/kg/injection, schedule: Q04DX003 (sc), vehicle: Klucel (hydroxypropylcellulose) (HPC)) was 84 % of control and the T/C (dose: 1.5 mg/kg/injection, schedule: Q04DX003 (sc), vehicle: Klucel (hydroxypropylcellulose) (HPC)) was 93 % of control.

`Clc1ccc(C(c2ccccc2Cl)C(Cl)Cl)cc1` (centres undefined) was tested, and the T/C [2] was 85 % of control, the T/C [3] was 98 % of control and the T/C (dose: 4800.0 mg/kg/injection, schedule: Q04DX003 (sc), vehicle: saline) was 83 % of control. The T/C (dose: 9600.0 mg/kg/injection, schedule: Q04DX003 (sc), vehicle: saline) was 39 % of control.

In the case of `COC1=C(OC)C(=O)C(C/C=C(\C)CC/C=C(\C)CC/C=C(\C)CC/C=C(\C)CC/C=C(\C)CC/C=C(\C)CC/C=C(\C)CC/C=C(\C)CC/C=C(\C)CCC=C(C)C)=C(C)C1=O`, the T/C [4] is reported as 153 % of control and the T/C [5] is reported as 118 % of control.

With `c1cn[nH]c1` the T/C (dose: 75.0 mg/kg/injection, schedule: Q04DX003 (ip), vehicle: saline) was 106 % of control, the T/C (dose: 150.0 mg/kg/injection, schedule: Q04DX003 (ip), vehicle: saline) was 96 % of control and the T/C (dose: 300.0 mg/kg/injection, schedule: Q04DX003 (ip), vehicle: saline) was 69 % of control. The T/C (dose: 600.0 mg/kg/injection, schedule: Q04DX003 (ip), vehicle: saline) was 71 % of control.

For `CN=C(N)N/N=C(\C)c1ccc2oc3ccc(/C(C)=N/NC(N)=NC)cc3c2c1`, the T/C (dose: 75.0 mg/kg/injection, schedule: Q04DX003 (sc), vehicle: saline with Tween-80) was 72 % of control, the T/C (dose: 150.0 mg/kg/injection, schedule: Q04DX003 (sc), vehicle: saline with Tween-80) was 86 % of control and the T/C [1] was 80 % of control.

With `NC(CNC(=O)CBr)C(=O)O` (centres undefined) the T/C (dose: 37.5 mg/kg/injection, schedule: Q04DX003 (sc), vehicle: water) was 53 % of control, the T/C (dose: 75.0 mg/kg/injection, schedule: Q04DX003 (sc), vehicle: water) was 10 % of control and 17 % of control and the T/C (dose: 100.0 mg/kg/injection, schedule: Q04DX003 (sc), vehicle: water) was 9 % of control. The T/C (dose: 150.0 mg/kg/injection, schedule: Q04DX003 (sc), vehicle: water) was 8 % of control and 13 % of control.

With `O=CNCO` the T/C (dose: 300.0 mg/kg/injection, schedule: Q01DX010 (sc), vehicle: water) was 111 % of control, the T/C (dose: 600.0 mg/kg/injection, schedule: Q01DX010 (sc), vehicle: water) was 62 % of control and the T/C (dose: 1200.0 mg/kg/injection, schedule: Q01DX010 (sc), vehicle: water) was 37 % of control. For the same compound, the T/C (dose: 2000.0 mg/kg/injection, schedule: Q01DX010 (sc), vehicle: water) was 5 % of control.

With `Cc1ccc(S(=O)(=O)NC(=S)S)cc1` the T/C [6] was 98 % of control and the T/C [4] was 93 % of control.

For `C=C1c2cccc(O)c2C(O)=C2C(=O)[C@]3(O)C(O)=C(C(N)=O)C(=O)[C@@H](N(C)C)[C@@H]3[C@@H](O)[C@H]12`, the T/C (dose: 75.0 mg/kg/injection, schedule: Q04DX003 (ip), vehicle: Klucel (hydroxypropylcellulose) (HPC)) was 89 % of control, the T/C (dose: 150.0 mg/kg/injection, schedule: Q04DX003 (ip), vehicle: Klucel (hydroxypropylcellulose) (HPC)) was 74 % of control and the T/C (dose: 300.0 mg/kg/injection, schedule: Q04DX003 (ip), vehicle: Klucel (hydroxypropylcellulose) (HPC)) was 58 % of control.

With `C[C@H](N)C(=O)N[C@@H]1[C@H]2C(=C(O)C[C@@H](O)[C@@H]2O)C(=O)O[C@@H]1C` the T/C (dose: 300.0 mg/kg/injection, schedule: Q04DX003 (sc), vehicle: saline) was 81 % of control, the T/C (dose: 600.0 mg/kg/injection, schedule: Q04DX003 (sc), vehicle: saline) was 67 % of control and the T/C [2] was 88 % of control. For the same compound, the T/C [3] was 99 % of control.

`COc1cccc2c1C(=O)c1c(O)c3c(c(O)c1C2=O)C[C@@](O)(C(=O)CO)C[C@@H]3OC1CC(N(C)C)C(O)C(C)O1` (some centres undefined) was tested, and the T/C (dose: 3.0 mg/kg/injection, schedule: Q01DX010 (sc), vehicle: water) was 211 % of control and the T/C (dose: 6.0 mg/kg/injection, schedule: Q01DX010 (sc), vehicle: water) was 227 % of control.

`O=C1N(Cl)C(=O)C(c2ccc(Cl)cc2)(c2ccc(Cl)cc2)N1Cl` was tested, and the T/C (dose: 50.0 mg/kg/injection, schedule: Q01DX010 (sc), vehicle: saline with Tween-80) was 68 % of control, the T/C [7] was 111 % of control and the T/C [6] was 65 % of control. The T/C [4] was 87 % of control.

`CC(=O)OCc1cc(=O)n(C)c2c3c4c(cc12)c(C)cc(=O)n4CO3` was tested, and the T/C (dose: 50.0 mg/kg/injection, schedule: Q01DX010 (sc), vehicle: Klucel (hydroxypropylcellulose) (HPC)) was 120 % of control and the T/C (dose: 100.0 mg/kg/injection, schedule: Q01DX010 (sc), vehicle: Klucel (hydroxypropylcellulose) (HPC)) was 92 % of control.

In the case of `O=C1c2ccccc2C(=O)c2c(NCCNCCO)ccc(O)c21`, the T/C (dose: 25.0 mg/kg/injection, schedule: Q04DX003 (sc), vehicle: suspension in saline) is reported as 95 % of control, the T/C (dose: 50.0 mg/kg/injection, schedule: Q04DX003 (sc), vehicle: saline) is reported as 92 % of control and the T/C (dose: 100.0 mg/kg/injection, schedule: Q04DX003 (sc), vehicle: saline) is reported as 69 % of control. The T/C (dose: 100.0 mg/kg/injection, schedule: Q04DX003 (sc), vehicle: suspension in saline) was 69 % of control and 78 % of control, the T/C (dose: 200.0 mg/kg/injection, schedule: Q04DX003 (sc), vehicle: saline) was 63 % of control and the T/C (dose: 200.0 mg/kg/injection, schedule: Q04DX003 (sc), vehicle: suspension in saline) was 78 % of control. For the same compound, the T/C (dose: 400.0 mg/kg/injection, schedule: Q04DX003 (sc), vehicle: saline) was 37 % of control and the T/C (dose: 400.0 mg/kg/injection, schedule: Q04DX003 (sc), vehicle: suspension in saline) was 98 % of control.

In the case of `CC1C=NNC1=O` (centres undefined), the T/C [7] is reported as 123 % of control, the T/C [4] is reported as 62 % of control and the T/C [5] is reported as 60 % of control.

With `O=c1oc2c(O)c(O)cc3c(=O)oc4c(O)c(O)cc1c4c23` the T/C [8] was 115 % of control, the T/C [9] was 109 % of control and the T/C [10] was 67 % of control. For the same compound, the T/C (dose: 1200.0 mg/kg/injection, schedule: Q04DX003 (sc), vehicle: Klucel (hydroxypropylcellulose) (HPC)) was 101 % of control.

In the case of `CS(=O)(=O)OCCN(CCOS(C)(=O)=O)c1ccc(C=O)cc1`, the T/C (dose: 25.0 mg/kg/injection, schedule: Q01DX010 (sc), vehicle: saline) is reported as -67 % of control and -51 % of control.

For `COC1=CC(=O)N(C(=O)C2CSC(C(CO)NC(=O)c3csc(/C=N/O)n3)=N2)C1` (centres undefined), the T/C [8] was 79 % of control, the T/C [9] was 81 % of control and the T/C [10] was 95 % of control.

For `Cc1ccccc1N(CC1CO1)CC1CO1` (centres undefined), the T/C (dose: 50.0 mg/kg/injection, schedule: Q01DX010 (sc), vehicle: saline) was 54 % of control, the T/C [11] was 91 % of control and the T/C [12] was 89 % of control. The T/C [13] was 56 % of control and the T/C (dose: 800.0 mg/kg/injection, schedule: Q01DX010 (sc), vehicle: suspension in saline) was 111 % of control.

In the case of `O=C(O)c1ccc(C(=O)O)c(C(=O)O)c1.[NH-]C1CCCCC1[NH-].[Pt+2]`, the T/C (dose: 3.12 mg/kg/injection, schedule: Q01DX010 (sc), vehicle: sodium bicarbonate) is reported as 10 % of control and 27 % of control and the T/C (dose: 6.25 mg/kg/injection, schedule: Q01DX010 (sc), vehicle: sodium bicarbonate) is reported as 1 % of control and 2 % of control.

In the case of `CC(=O)N(C)c1ccc(Nc2cc(C)[nH]c3ccc4ncnc4c23)cc1`, the T/C (dose: 50.0 mg/kg/injection, schedule: Q04DX003 (sc), vehicle: saline with Tween-80) is reported as 102 % of control, the T/C (dose: 100.0 mg/kg/injection, schedule: Q04DX003 (sc), vehicle: saline with Tween-80) is reported as 84 % of control and the T/C (dose: 200.0 mg/kg/injection, schedule: Q04DX003 (sc), vehicle: saline with Tween-80) is reported as 69 % of control.

`N/C=N/O` was tested, and the T/C [11] was 107 % of control, the T/C [12] was 53 % of control and the T/C [13] was 81 % of control.

`O=C1C=CC(=O)N1c1ccc(Cl)cc1` was tested, and the T/C (dose: 37.5 mg/kg/injection, schedule: Q04DX003 (sc), vehicle: Klucel (hydroxypropylcellulose) (HPC)) was 79 % of control, the T/C (dose: 75.0 mg/kg/injection, schedule: Q04DX003 (sc), vehicle: Klucel (hydroxypropylcellulose) (HPC)) was 91 % of control and the T/C [8] was 85 % of control.
